Active and inactive are the calls of the source.
Legend:
[1] = Stability in PBS; format: physicochemical; conditions: buffer
[2] = target: COX1 (Prostaglandin G/H synthase 1) (Homo sapiens, UniProt P23219); assay: Inhibition of COX1 in human platelet rich plasma in assessed as inhibition of ADP-induced platelet aggregation at 10 uM incubated for 5 mins by turbidimetry based Born's method relative to control
Rattus norvegicus [3] = assay: Antihyperalgesic activity in Sprague-Dawley rat model of Complete freund's adjuvant-induced arthritis assessed as increase in pain threshold of ipsilateral paw at 30 mg/kg, po starting from day 14 after CFA injection and measured at 0 to 60 mins by paw pressure test; format: functional, organism-based
[4] = Solubility of the compound; format: physicochemical
Rattus norvegicus [5] = assay: (§1) Antihyperalgesic activity in Sprague-Dawley rat model of Complete freund's adjuvant-induced arthritis assessed as reduction in difference between weight burdened on contralateral and ipsilateral paw at 30 mg/kg, po starting from day 14 after CFA injection and measured at 30 mins incapacitance test; format: functional, organism-based
[6] = Half life in human plasma by LC-MS/MS analysis; format: ADME, cell-free
[7] = Half life in Sprague-Dawley rat plasma by LC-MS/MS analysis; format: ADME, cell-free
[8] = target: Carbonic anhydrase 4 (Homo sapiens) (UniProt P22748)
Carbonic anhydrase 4 (Homo sapiens), sequence (P22748 whole entry): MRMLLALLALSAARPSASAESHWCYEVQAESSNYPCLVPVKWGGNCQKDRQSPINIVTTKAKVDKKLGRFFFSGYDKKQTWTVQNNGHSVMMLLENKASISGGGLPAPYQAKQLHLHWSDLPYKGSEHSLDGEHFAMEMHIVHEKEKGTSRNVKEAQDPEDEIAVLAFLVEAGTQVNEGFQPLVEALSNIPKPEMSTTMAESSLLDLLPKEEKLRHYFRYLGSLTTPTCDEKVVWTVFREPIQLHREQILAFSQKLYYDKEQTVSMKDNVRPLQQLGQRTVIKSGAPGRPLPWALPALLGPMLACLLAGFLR
Description: Inhibition of human CA4 pre-incubated for 6 hrs by stopped- flow CO2 hydrase assay method based Cheng-Prusoff equation analysis

[9] = target: Carbonic anhydrase 7 (Homo sapiens) (UniProt P43166)
Carbonic anhydrase 7 (Homo sapiens), sequence (P43166 whole entry): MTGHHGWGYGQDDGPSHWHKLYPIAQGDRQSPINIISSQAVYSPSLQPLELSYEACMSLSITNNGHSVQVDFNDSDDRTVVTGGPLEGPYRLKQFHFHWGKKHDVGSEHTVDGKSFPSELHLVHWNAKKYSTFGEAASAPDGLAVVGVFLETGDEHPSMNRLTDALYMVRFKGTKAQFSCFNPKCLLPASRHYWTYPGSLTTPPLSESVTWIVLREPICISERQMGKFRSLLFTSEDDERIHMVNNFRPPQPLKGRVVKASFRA
Description: Inhibition of human CA7 pre-incubated for 6 hrs by stopped- flow CO2 hydrase assay method based Cheng-Prusoff equation analysis

[10] = target: Carbonic anhydrase 1 (Homo sapiens) (UniProt P00915)
Carbonic anhydrase 1 (Homo sapiens), sequence (P00915 2-261 limits assumed): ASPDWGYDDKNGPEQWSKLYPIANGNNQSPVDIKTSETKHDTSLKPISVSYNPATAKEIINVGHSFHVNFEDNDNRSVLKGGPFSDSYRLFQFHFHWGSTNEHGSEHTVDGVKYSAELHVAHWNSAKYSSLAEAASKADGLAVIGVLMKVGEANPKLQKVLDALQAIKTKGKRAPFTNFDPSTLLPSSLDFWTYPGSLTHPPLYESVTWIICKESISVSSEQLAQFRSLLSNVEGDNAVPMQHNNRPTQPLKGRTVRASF
Description: Inhibition of human CA1 pre-incubated for 6 hrs by stopped- flow CO2 hydrase assay method based Cheng-Prusoff equation analysis

[11] = target: Carbonic anhydrase 2 (Homo sapiens) (UniProt P00918)
Description: Inhibition of human CA2 pre-incubated for 6 hrs by stopped- flow CO2 hydrase assay method based Cheng-Prusoff equation analysis

[12] = target: Carbonic anhydrase 9 (Homo sapiens) (UniProt Q16790)
Description: Inhibition of human CA9 pre-incubated for 6 hrs by stopped- flow CO2 hydrase assay method based Cheng-Prusoff equation analysis

[13] = target: Carbonic anhydrase 12 (Homo sapiens) (UniProt O43570)
Carbonic anhydrase 12 (Homo sapiens), sequence (O43570 whole entry): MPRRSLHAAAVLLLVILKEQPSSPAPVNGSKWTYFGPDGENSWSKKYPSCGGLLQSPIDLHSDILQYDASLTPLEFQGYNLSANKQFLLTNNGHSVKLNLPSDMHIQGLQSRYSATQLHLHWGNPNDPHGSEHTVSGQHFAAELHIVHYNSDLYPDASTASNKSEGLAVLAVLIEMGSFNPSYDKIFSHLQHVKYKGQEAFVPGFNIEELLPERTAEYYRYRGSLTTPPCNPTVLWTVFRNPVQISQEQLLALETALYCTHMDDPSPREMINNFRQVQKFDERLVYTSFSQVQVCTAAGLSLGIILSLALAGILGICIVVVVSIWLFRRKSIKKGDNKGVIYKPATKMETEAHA
Description: Inhibition of human CA12 pre-incubated for 6 hrs by stopped- flow CO2 hydrase assay method based Cheng-Prusoff equation analysis

Rattus norvegicus [14] = assay: Antihyperalgesic activity in Sprague-Dawley rat model of Complete freund's adjuvant-induced arthritis assessed as pain threshold of ipsilateral paw at 13.4 mg/kg, po starting from day 14 after CFA injection and measured at 15 mins by paw pressure test (reference value: 40.1 +/- 0.7 g); format: functional
Rattus norvegicus [15] = assay: Antihyperalgesic activity in Sprague-Dawley rat model of Complete freund's adjuvant-induced arthritis assessed as pain threshold of ipsilateral paw at 13.4 mg/kg, po starting from day 14 after CFA injection and measured at 30 mins by paw pressure test (reference value: 40.1 +/- 0.7 g); format: functional
Rattus norvegicus [16] = assay: Antihyperalgesic activity in Sprague-Dawley rat model of Complete freund's adjuvant-induced arthritis assessed as reduction in difference between weight burdened on contralateral and ipsilateral paw at 13.4 mg/kg, po starting from day 14 after CFA injection and measured at 15 mins incapacitance test; format: functional, organism-based
Rattus norvegicus [17] = assay: Antihyperalgesic activity in Sprague-Dawley rat model of Complete freund's adjuvant-induced arthritis assessed as pain threshold of ipsilateral paw at 30 mg/kg, po starting from day 14 after CFA injection and measured at 15 mins by paw pressure test (reference value: 40.1 +/- 0.7 g); format: functional
Rattus norvegicus [18] = assay: Antihyperalgesic activity in Sprague-Dawley rat model of Complete freund's adjuvant-induced arthritis assessed as pain threshold of ipsilateral paw at 30 mg/kg, po starting from day 14 after CFA injection and measured at 30 mins by paw pressure test (reference value: 40.1 +/- 0.7 g); format: functional
Rattus norvegicus [19] = assay: Antihyperalgesic activity in Sprague-Dawley rat model of Complete freund's adjuvant-induced arthritis assessed as pain threshold of ipsilateral paw at 30 mg/kg, po starting from day 14 after CFA injection and measured at 45 mins by paw pressure test (reference value: 40.1 +/- 0.7 g); format: functional
Rattus norvegicus [20] = assay: Antihyperalgesic activity in Sprague-Dawley rat model of Complete freund's adjuvant-induced arthritis assessed as increase in pain threshold of ipsilateral paw at 3 to 30 mg/kg, po starting from day 14 after CFA injection and measured at 0 to 60 mins by paw pressure test; format: functional, organism-based
Rattus norvegicus [21] = assay: Antihyperalgesic activity in Sprague-Dawley rat model of Complete freund's adjuvant-induced arthritis assessed as effect on pain threshold of ipsilateral paw at 30 mg/kg, po starting from day 14 after CFA injection and measured at 60 mins by paw pressure test; format: functional, organism-based
Rattus norvegicus [22] = assay: Antihyperalgesic activity in Sprague-Dawley rat model of Complete freund's adjuvant-induced arthritis assessed as increase in pain threshold of ipsilateral paw at 10 mg/kg, po starting from day 14 after CFA injection and measured at 15 mins by paw pressure test; format: functional, organism-based
Rattus norvegicus [23] = assay: Antihyperalgesic activity in Sprague-Dawley rat model of Complete freund's adjuvant-induced arthritis assessed as increase in pain threshold of ipsilateral paw at 10 mg/kg, po starting from day 14 after CFA injection and measured at 30 mins by paw pressure test; format: functional
Rattus norvegicus [24] = assay: Antihyperalgesic activity in Sprague-Dawley rat model of Complete freund's adjuvant-induced arthritis assessed as increase in pain threshold of ipsilateral paw at 10 mg/kg, po starting from day 14 after CFA injection and measured at 45 mins by paw pressure test; format: functional, organism-based
Rattus norvegicus [25] = assay: Antihyperalgesic activity in Sprague-Dawley rat model of Complete freund's adjuvant-induced arthritis assessed as pain threshold of ipsilateral paw at 3 mg/kg, po starting from day 14 after CFA injection and measured at 30 mins by paw pressure test (reference value: 40.1 +/- 0.7 g); format: functional
Rattus norvegicus [26] = assay: as §1, with “paw at 3 to 30 mg/kg,” for “paw at 30 mg/kg,”, “measured at 0 to 60 mins incapacitance” for “measured at 30 mins incapacitance”; format: functional, organism-based
Rattus norvegicus [27] = assay: as §1, with “measured at 15 to 45 mins incapacitance” for “measured at 30 mins incapacitance”; format: functional, organism-based
Rattus norvegicus [28] = assay: as §1, with “paw at 10 mg/kg, po” for “paw at 30 mg/kg, po”, “measured at 15 to 30 mins” for “measured at 30 mins”; format: functional, organism-based
Rattus norvegicus [29] = assay: Antihyperalgesic activity in Sprague-Dawley rat model of Complete freund's adjuvant-induced arthritis assessed as reduction in difference between weight burdened on contralateral and ipsilateral paw at 3 mg/kg, po starting from day 14 after CFA injection and measured at 30 mins incapacitance test; format: functional, organism-based
Rattus norvegicus [30] = assay: Antihyperalgesic activity in Sprague-Dawley rat model of Complete freund's adjuvant-induced arthritis assessed as reduction in difference between weight burdened on contralateral and ipsilateral paw at 10 mg/kg, po starting from day 14 after CFA injection and measured at 30 mins incapacitance test; format: functional, organism-based

COX1 (Prostaglandin G/H synthase 1), sequence (P23219 whole entry): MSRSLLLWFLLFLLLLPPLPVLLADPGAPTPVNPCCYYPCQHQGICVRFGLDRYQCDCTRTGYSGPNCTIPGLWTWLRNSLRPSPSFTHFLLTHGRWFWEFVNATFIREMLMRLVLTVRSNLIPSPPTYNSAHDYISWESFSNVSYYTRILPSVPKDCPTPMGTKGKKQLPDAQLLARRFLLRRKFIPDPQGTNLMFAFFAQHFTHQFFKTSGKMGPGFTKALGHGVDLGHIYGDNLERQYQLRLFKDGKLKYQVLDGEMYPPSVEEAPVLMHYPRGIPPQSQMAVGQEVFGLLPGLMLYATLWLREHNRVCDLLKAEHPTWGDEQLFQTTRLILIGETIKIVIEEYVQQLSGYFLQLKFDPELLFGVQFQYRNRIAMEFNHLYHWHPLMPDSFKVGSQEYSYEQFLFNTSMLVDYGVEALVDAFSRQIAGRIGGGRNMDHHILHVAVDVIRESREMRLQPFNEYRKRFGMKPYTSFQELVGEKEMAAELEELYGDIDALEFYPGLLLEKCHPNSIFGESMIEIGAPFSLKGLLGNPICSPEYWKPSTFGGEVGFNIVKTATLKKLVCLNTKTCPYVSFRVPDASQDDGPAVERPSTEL

| Compound | Stability [1] | inhibition at 5 min, 10 µM [2] [%] | half-life [6] [min] | half-life [7] [min] | Ki [8] [nM] | Ki [9] [µM] | Ki [10] [µM] | Ki [11] [µM] | Ki [12] [nM] | Ki [13] [nM] | further results |
| --- | --- | --- | --- | --- | --- | --- | --- | --- | --- | --- | --- |
| CC(C(=O)OCCOc1ccc2ccc(=O)oc2c1)c1cccc(C(=O)c2ccccc2)c1 (racemic) | Stable | 5 to 30 | 12 | 2.1 | 6.7 | > 10 | > 10 | > 10 | 35.4 | 55.4 | Activity (Rattus norvegicus [3]): inactive; solubility [4]: Insoluble; Activity (Rattus norvegicus [5]): Active |
| O=c1ccc2cc(OCCO)ccc2o1 | – | – | – | – | – | – | – | – | – | – | Activity (Rattus norvegicus [14]): 51.7 g; Activity (Rattus norvegicus [15]): 18.4 g; Activity (Rattus norvegicus [16]): Active |
| CC(C(=O)OCCOc1ccc2oc(=O)ccc2c1)c1cccc(C(=O)c2ccccc2)c1 (racemic) | Stable | 5 to 30 | 31 | 4.7 | 2.3 | > 10 | > 10 | > 10 | 36.9 | 83.1 | Activity (Rattus norvegicus [17]): <=53.8 g; Activity (Rattus norvegicus [18]): <=64.4 g; Activity (Rattus norvegicus [19]): <=50 g; Activity (Rattus norvegicus [20]): Dose-dependent effect; Activity (Rattus norvegicus [21]): inactive; Activity (Rattus norvegicus [22]): Active; Activity (Rattus norvegicus [23]): 100%; Activity (Rattus norvegicus [24]): inactive; Activity (Rattus norvegicus [25]): 49.4 g; Activity (Rattus norvegicus [26]): Dose-dependent effect; Activity (Rattus norvegicus [27]): Active; Activity (Rattus norvegicus [28]): Active; Activity (Rattus norvegicus [29]): Active; Activity (Rattus norvegicus [30]): Active |
